# Experiment: Radiochemical purity of [^18F]FES stock solution during storage (radiolysis stability)
# Format: physicochemical
# Conditions: for Radio-chemical purity after 10 h storage: sodium ascorbate in purification and formulation (0.45% m/v)
# Description: Radiochemical purity is the ratio of the radioactivity of the radionuclide agent under chemical form on the total radioactivity of this same radionuclide. Radiochemical purity of the [^18F]FES stock solution is measured. […]
smiles,measurement,setting,value
"C[C@]12CC[C@@H]3c4ccc(O)cc4CC[C@H]3C1C[C@@H]([18F])[C@@H]2O (stereo partly drawn) [[^18F]FES, 16α-[^18F]fluoro-17β-estradiol]",Radio-chemical purity,"Example 2: sodium ascorbate during purification only, none in final solution, 250 GBq 18-Fluorine, time of storage 0 hours (end of synthesis)",99.3%
same,Radio-chemical purity,"Example 2: sodium ascorbate during purification only, none in final solution, 250 GBq 18-Fluorine, time of storage 4 hours",95%
same,Radio-chemical purity,"Example 2: sodium ascorbate during purification only, none in final solution, 250 GBq 18-Fluorine, time of storage 8 hours",93%
same,Radio-chemical purity,"Example 2: sodium ascorbate during purification only, none in final solution, 250 GBq 18-Fluorine, time of storage 10 hours",92%
same,Radio-chemical purity after 10 h storage,"Example 3, batch number 1, 79 GBq 18-Fluorine",98.0%
same,Radio-chemical purity after 10 h storage,"Example 3, batch number 2, 99 GBq 18-Fluorine",99.0%
same,Radio-chemical purity after 10 h storage,"Example 3, batch number 3, 164 GBq 18-Fluorine",96.7%
same,Radio-chemical purity after 10 h storage,"Example 3, batch number 4, 195 GBq 18-Fluorine",97.1%
same,Radio-chemical purity,"Example 4: synthesis in the presence of sodium ascorbate, 164 GBq 18-Fluorine, time of storage 0 hours (end of synthesis)",98.0%
same,Radio-chemical purity,"Example 4: synthesis in the presence of sodium ascorbate, 164 GBq 18-Fluorine, time of storage 5 hours",96.8%
same,Radio-chemical purity,"Example 4: synthesis in the presence of sodium ascorbate, 164 GBq 18-Fluorine, time of storage 10 hours",96.7%
same,Decrease of radiochemical purity after 10 hours of storage,"synthesized in the presence of sodium ascorbate (Example 4, Table 4)",1.3%
same,Decrease of radiochemical purity after 10 hours of storage,"synthesized without antioxidant (Example 2, Table 2)",7.3%

# Reference: patent US10695450B2, “Synthesis of a radioactive agent composition” (LABORATOIRES CYCLOPHARMA, priority 2016, dated 2020)
